Measurements reported in ChEMBL document CHEMBL4825761, “Utilization of Metabolite Identification and Structural Data to Guide Design of Low-Dose IDO1 Inhibitors” (ACS Med Chem Lett, 2021).

Experiments:
[1] = Unbound clearance in Wistar Han rat by LC-MS/MS analysis; format: ADME; conditions: in vivo
[2] = Clearance in dog; format: ADME, Canis lupus familiaris; conditions: in vivo
[3] = Unbound clearance in dog; format: ADME, Canis lupus familiaris; conditions: in vivo
[4] = target: T1, Indoleamine 2,3-dioxygenase 1 (Homo sapiens, UniProt P14902); experiment: Inhibition of IDO1 in human HeLa cells; format: cell-based
Target sequence in this assay (P14902 whole entry): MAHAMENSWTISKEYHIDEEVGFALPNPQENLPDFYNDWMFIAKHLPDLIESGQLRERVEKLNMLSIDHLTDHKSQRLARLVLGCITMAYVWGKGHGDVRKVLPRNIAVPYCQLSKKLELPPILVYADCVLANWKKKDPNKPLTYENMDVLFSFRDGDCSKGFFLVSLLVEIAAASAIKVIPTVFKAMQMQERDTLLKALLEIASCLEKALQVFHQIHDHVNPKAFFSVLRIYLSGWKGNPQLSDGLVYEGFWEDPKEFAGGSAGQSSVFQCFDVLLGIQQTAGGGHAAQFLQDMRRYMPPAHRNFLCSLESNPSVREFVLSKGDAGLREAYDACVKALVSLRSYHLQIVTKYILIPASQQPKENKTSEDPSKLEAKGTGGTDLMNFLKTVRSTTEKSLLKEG

[5] = target: T1, Indoleamine 2,3-dioxygenase 1; experiment: Inhibition of IDO1 in IFNgamma/LPS stimulated human whole blood assessed as reduction in kynurenine production using tryptophan as substrate preincubated with compound for 15 mins followed by incubation with IFNgamma/LPS for overnight by LC/MS/MS analysis; format: tissue-based
[6] = Clearance in Wistar Han rat by LC-MS/MS analysis; format: ADME; conditions: in vivo
[7] = Volume of distribution in Wistar Han rat by LC-MS/MS analysis; format: ADME; conditions: in vivo
[8] = Volume of distribution in dog; format: ADME, Canis lupus familiaris; conditions: in vivo
[9] = Half life in Wistar Han rat by LC-MS/MS analysis; format: ADME; conditions: in vivo
[10] = Half life in dog; format: ADME, Canis lupus familiaris; conditions: in vivo
[11] = Oral bioavailability in Wistar Han rat by LC-MS/MS analysis; format: ADME, organism-based; conditions: in vivo
[12] = Oral bioavailability in dog; format: ADME, organism-based, Canis lupus familiaris; conditions: in vivo
[13] = Lipophilicity, logD of the compound by HPLC analysis; format: physicochemical
[14] = Plasma concentration in CD1 mouse xenografted with mouse CT26 cells overexpressing human IDO1 at 3 mg/kg, po administered as single dose measured after 2 hrs by mass spectrometry; format: ADME, organism-based
[15] = Plasma concentration in CD1 mouse xenografted with mouse CT26 cells overexpressing human IDO1 at 3 mg/kg, po administered as single dose measured after 4 hrs by mass spectrometry; format: ADME, organism-based
[16] = Plasma concentration in CD1 mouse xenografted with mouse CT26 cells overexpressing human IDO1 at 3 mg/kg, po administered as single dose measured after 8 hrs by mass spectrometry; format: ADME, organism-based
[17] = Plasma concentration in CD1 mouse xenografted with mouse CT26 cells overexpressing human IDO1 at 3 mg/kg, po administered as single dose measured after 16 hrs by mass spectrometry; format: ADME, organism-based; conditions: in vivo, BLD = below limit of detection

Structure (SMILES)	CL free [1] [mL/min/kg]	clearance [2] [mL/min/kg]	CL free [3] [mL/min/kg]	IC50 [4] [nM]	IC50 [5] [nM]	fIC50 [5] [nM]	clearance [6] [mL/min/kg]	Vd [7] [L/kg]	Vd [8] [L/kg]	half-life [9] [h]	half-life [10] [h]	bioavailability [11] [%]	bioavailability [12] [%]	logD [13]	concentration at 2 h [14] [nM]	concentration at 4 h [15] [nM]	concentration at 8 h [16] [nM]	Cp [17]
Cc1nccc(N2C[C@@H]3C[C@@H]3c3nc(C4(NC(=O)c5ccc(F)cc5)CC4)ccc32)n1	307	12.3	26	2	16	0.8	16.7	1.4	1.3	1.9	9	46	46	2.4	–	–	–	–
Cc1nccc(N2CCCc3nc(C4(NC(=O)c5ccc(F)cc5)CC4)ccc32)n1	–	–	–	–	–	–	–	–	–	–	–	–	–	–	210	90	30	Bld
